The nature of one data set: Solubility. The class given is physicochemical.
The nature of data set [1]: orientating LD50-toxicity test on white mice after intravenous injection. Conditions: mouse, in vivo. The text has this:
(§1) all-cis-1,3,5-Triamino-2,4,6-cyclohexanetriol (10), all-cis-1,3,5-tris-(dimethylamino)-2,4,6-cyclohexane triol hydrochloride (12a), all-cis-1,3,5-tris-(trimethylammonio)-2,4,6-[…] (19c) and all-cis-1,3,5-tris-(succinoylamino)-2,4,6-cyclohexanetriol are found to have the following values in mg/kg of body weight in the orientating LD50 -toxicity test on white mice after intravenous injection: 158, 440, 235 and >1000. The elimination of iron from rats with an excessively high iron level by excretion in the urine and faeces after intravenous administration is shown in the following Table by comparison with the figures obtained with Desferal. The rates of excretion were measured over 72 hours after application.

Data set [2] concerns rats with an excessively high iron level. The experiment in a line: elimination of iron from rats with an excessively high iron level by excretion in urine and faeces after intravenous administration. In kind it is in vivo. Conditions: over 72 hours, by comparison with Desferal (= 1).
Text: as §1

For data set [3] the following is noted: parenteral; cited from earlier work.
For data set [4] the following is noted: cited from earlier work.
The nature of a further data set: pK-values (approximate). In kind it is physicochemical.
Data set [5] can be described thus: general statement on toxicity.
Data set [6] is described as follows: Response to iron(III): keeping iron(III) in solution by complex formation. In kind it is physicochemical.
Data set [7] is described as follows: Response to β-FeO(OH): dissolution of this rust. Conditions: in words.
Where [8] appears, read: white mice, intravenous injection, orientating test, read-out: LD50.
[9] abbreviates: pK2, second lowest value of the list.
The mark [10] stands for this setting: pK3, third lowest value of the list.
Setting [11] is: pK4, fourth lowest value of the list.
The mark [12] stands for this setting: pK5, fifth lowest value of the list.
The mark [13] stands for this setting: pK6, sixth lowest value of the list.

Molecules are shown by their SMILES. Read-outs that look alike come from different tables or passages of the source. Some results are limits rather than exact numbers.

For orientation: LD50 means the dose at which mortality reaches 50%. As usually defined, the pKa is the negative logarithm of the acid dissociation constant. The low end stands for a stronger acid or weaker base, the high end for a weaker acid or stronger base.

`O=C(O)CCC(=O)N[C@H]1[C@@H](O)[C@@H](NC(=O)CCC(=O)O)[C@@H](O)[C@@H](NC(=O)CCC(=O)O)[C@H]1O` [Example 16, all-cis-1,3,5a-tris-(succinoylamino)-2,4,6-cyclohexanetriol]: the Solubility entry in the data set “Solubility” (cyclohexane) was “sparingly”; in “Solubility” (water) it was “Readily”; in “Solubility” (water/EtOH), “Readily”; in the data set “Solubility” (water/MeOH) it was “Readily”. Besides, in data set [1] (setting [8]), the median lethal dose (LD50) was over 1000 mg/kg.
As for `C[N+](C)(C)[C@H]1[C@@H](O)[C@@H]([N+](C)(C)C)[C@@H](O)[C@@H]([N+](C)(C)C)[C@H]1O` [Example 19c], the LD50 in data set [1] (setting [8]) was 235 mg/kg. In addition, in data set [2], the “elimination of iron by excretion in the faeces” value (shortened to “elimination … in the faeces”) is reported as 0.5 and the “elimination of iron by excretion in the urine” value (shortened to “elimination … in the urine”) came to 0.2.
Consider `CN(C)[C@H]1[C@@H](O)[C@@H](N(C)C)[C@@H](O)[C@@H](N(C)C)[C@H]1O` [Example 12b, all-cis-1,3,5-Tris-(dimethylammonio)-2,4,6-cyclohexanetriol sulphate], for which the “solubility in boiling methanol” value in the data set “Solubility” (boiling methanol) was “virtually insoluble”.
In the case of `CC(=O)N(O)CCCCCNC(=O)CCC(=O)N(O)CCCCCNC(=O)CCC(=O)N(O)CCCCCN` [Desferal, 30-amino-3,14,25-trihydroxy-3,9,14,20,25-pentaaza-2,10,13,21,24-triacontane-pentanone-methane sulphonate, reference compound], in data set [2], the “elimination … in the faeces” value came to 1 and the “elimination … in the urine” value came out at 1. In data set [3], the “half life in the body” value is on record as “very short”. The “serious side effects after prolonged administration” value in data set [4] is listed as “visual disturbances”.
As to `O=P(O)(O)CN[C@H]1[C@@H](O)[C@@H](NCP(=O)(O)O)[C@@H](O)[C@@H](NCP(=O)(O)O)[C@H]1O` [Example 11, all-cis-1,3,5-Tris-(ammoniomethanephosphonic acid)-2,4,6-cyclohexanetriol trichloride], the pKa is about 5.2 in “pK-values (approximate)” (pK1, lowest value of the list); about 6 in the data set “pK-values (approximate)” (setting [9]); about 6.5 in “pK-values (approximate)” (setting [10]); about 7 in the data set “pK-values (approximate)” (setting [11]); about 8 in the data set “pK-values (approximate)” (setting [12]); about 9.5 in “pK-values (approximate)” (setting [13]).
`N#CCN[C@H]1[C@@H](O)[C@@H](NCC#N)[C@@H](O)[C@@H](NCC#N)[C@H]1O` [all-cis-1,3,5-tris-(aminoacetic acid nitrile)-2,4,6-cyclohexanetriol]: the pKa in “pK-values (approximate)” (highest pK of nitrile intermediate) is about 6.5; in “pK-values (approximate)” (next lowest pK of nitrile intermediate), about 3.
As for `N[C@H]1[C@@H](O)[C@@H](N)[C@@H](O)[C@@H](N)[C@H]1O` [Example 10, all-cis-1,3,5-Triamino-2,4,6-cyclohexanetriol], the LD50 in data set [1] (setting [8]) came to 158 mg/kg. For the same molecule, in data set [2], the “elimination … in the faeces” value was 0.2 and the “elimination … in the urine” value was 0.1. The toxicity entry in data set [5] is reported as “relatively low toxicity”.
Regarding `CN(C)[C@H]1[C@@H](O)[C@@H](N(C)C)[C@@H](O)[C@@H](N(C)C)[C@H]1O` [Example 12a, all-cis-1,3,5-Tris-(dimethylammonio)-2,4,6-cyclohexanetriol trichloride dihydrate], the LD50 in data set [1] (iv) is 440 mg/kg. In addition, in data set [2], the “elimination … in the faeces” value turned out to be 0.5 and the “elimination … in the urine” value is reported as 1.
As for `N#CCCN[C@H]1[C@@H](O)[C@@H](NCCC#N)[C@@H](O)[C@@H](NCCC#N)[C@H]1O` [all-cis-1,3,5-tris-(2'-aminopropionitrile)-2,4,6-cyclohexanetriol], the pKa in the data set “pK-values (approximate)” (pK1, lowest value of the list) was about 3; in “pK-values (approximate)” (setting [9]), about 4.5; in the data set “pK-values (approximate)” (setting [10]), about 6.3.
`O=C(O)CCN[C@H]1[C@@H](O)[C@@H](NCCC(=O)O)[C@@H](O)[C@@H](NCCC(=O)O)[C@H]1O` [Example 12]: the pKa in “pK-values (approximate)” (pK1, lowest value of the list) is about 6.2; in “pK-values (approximate)” (setting [9]) it was about 8.2; in the data set “pK-values (approximate)” (setting [10]), about 9.7. In data set [6] (Fe(III):ligand=1:1, result in words), the “pH range in which a solution containing Fe(III) and ligand is clear” value is given as “clear over the entire ranges of pH”. Further, the “solubility of the iron complex” value in [6] (pH 3 to 6) is recorded as “relatively sparingly soluble”. Moreover, the “maximum Fe(III) kept in solution per ligand” value in data set [6] (pH 7.5) was ≤ 2 Fe(III) per ligand.
Turning to `CCCCN(CC(=O)O)[C@H]1[C@@H](O)[C@@H](N(CCCC)CC(=O)O)[C@@H](O)[C@@H](N(CCCC)CC(=O)O)[C@H]1O` [Example 15, all-cis-1,3,5-(N-butylammonioacetic acid)-2,4,6-cyclohexanetriol trichloride], the “Response to β-FeO(OH)” value in data set [7] is “Identical to Examples 13 and 14”.
With `O=C(O)CN[C@H]1[C@@H](O)[C@@H](NCC(=O)O)[C@@H](O)[C@@H](NCC(=O)O)[C@H]1O` [Example 13, all-cis-1,3,5-Tris-(ammonioacetic acid)-2,4,6-cyclohexanetriol trichloride], the pKa is about 5.7 in the data set “pK-values (approximate)” (setting [11]), about 7.8 in the data set “pK-values (approximate)” (setting [12]), about 8.9 in “pK-values (approximate)” (setting [13]) and under 3 in the data set “pK-values (approximate)” (three lowest pK-values). The “precipitation of iron hydroxide” value in [6] (ligand:iron ratio of 1:1, pH higher than about 11) is on record as “Iron hydroxide precipitates”.

These data come from US4794197A, “All-cis-1,3,5-triamino-2,4,6,-cyclohexanetriol derivatives, their use, processes for their preparation and pharmaceutical preparations containing them” (priority 1985, dated 1988).
